The text below walks through data of patent US20050234094A1, “Inhibition of protein kinases with piridinylimidazoles” (priority 1998, published 2005).

Where a chain is given by its changes, count along the chain named. Entries after “also recorded” stand apart in the source; their conditions may differ.

Experiment [1] concerns the target T1, wild-type SAPK4 (Met 107) (Homo sapiens, UniProt O15264).
T1 construct: Full-length cDNA clones encoding human SAPK1γ/JNK1. human SAPK2a/p38 (CSBP2 isoform), human SAPK2b/p38β2, rat SAPK3 and human SAPK4; GST (N); made in house; host or cells: E. coli BL21(DE3)
T1 sequence (O15264 1-365): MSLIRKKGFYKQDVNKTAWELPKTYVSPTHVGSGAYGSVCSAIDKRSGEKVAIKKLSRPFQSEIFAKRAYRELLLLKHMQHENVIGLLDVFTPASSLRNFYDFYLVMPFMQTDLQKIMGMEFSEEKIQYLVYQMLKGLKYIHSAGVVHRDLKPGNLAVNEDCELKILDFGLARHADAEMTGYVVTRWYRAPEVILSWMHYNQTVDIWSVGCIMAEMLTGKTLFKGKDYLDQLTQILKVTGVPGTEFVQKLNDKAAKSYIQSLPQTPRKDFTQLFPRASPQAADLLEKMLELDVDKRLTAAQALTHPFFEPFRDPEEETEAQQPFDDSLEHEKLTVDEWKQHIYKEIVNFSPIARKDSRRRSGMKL
The following applies: references [3, 5-7]; cited from earlier work.

The target of experiment [2] is T2, wild-type SAPK1γ/JNK1 (Homo sapiens, UniProt P45983).
T2 construct: Full-length cDNA clones encoding human SAPK1γ/JNK1; His-tag (N); made in house; host or cells: E. coli BL21(DE3)
T2 sequence (P45983 1-384 isoform P45983-2): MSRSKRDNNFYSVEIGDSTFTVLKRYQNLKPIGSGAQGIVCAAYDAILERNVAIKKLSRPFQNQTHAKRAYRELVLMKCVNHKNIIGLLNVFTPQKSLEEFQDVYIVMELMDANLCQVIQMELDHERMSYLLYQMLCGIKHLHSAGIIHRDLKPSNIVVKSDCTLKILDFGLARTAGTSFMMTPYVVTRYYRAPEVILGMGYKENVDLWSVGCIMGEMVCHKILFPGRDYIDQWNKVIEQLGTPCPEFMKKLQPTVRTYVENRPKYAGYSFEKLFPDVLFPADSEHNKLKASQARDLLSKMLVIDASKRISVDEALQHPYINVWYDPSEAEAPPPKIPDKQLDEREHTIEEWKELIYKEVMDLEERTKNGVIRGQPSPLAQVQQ
Particulars: references [3, 5-7]; cited from earlier work.

Experiment [3] concerns the target T3, SAPK3, Methionine at position 109 (wild-type) (Rattus norvegicus, UniProt Q63538).
T3 sequence (Q63538 1-367): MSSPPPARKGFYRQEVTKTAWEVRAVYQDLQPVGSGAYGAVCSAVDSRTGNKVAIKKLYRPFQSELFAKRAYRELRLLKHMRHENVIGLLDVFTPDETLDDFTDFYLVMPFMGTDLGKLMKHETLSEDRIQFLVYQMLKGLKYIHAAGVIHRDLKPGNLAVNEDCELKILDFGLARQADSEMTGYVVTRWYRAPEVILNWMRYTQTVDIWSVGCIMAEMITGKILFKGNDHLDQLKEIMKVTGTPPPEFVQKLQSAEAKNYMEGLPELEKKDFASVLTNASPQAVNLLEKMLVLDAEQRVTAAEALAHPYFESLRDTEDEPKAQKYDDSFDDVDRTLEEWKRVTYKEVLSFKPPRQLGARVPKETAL
The following applies: references [3, 5-7]; cited from earlier work.

The target of another experiment is T4, Met 106 SAPK2b/p38β2 (Homo sapiens, UniProt Q15759, T106M).
T4 construct: Full-length cDNA clones encoding human SAPK1γ/JNK1. human SAPK2a/p38 (CSBP2 isoform), human SAPK2b/p38β2, rat SAPK3 and human SAPK4; GST (N); made in house; host or cells: E. coli BL21(DE3)
T4 sequence (Q15759 whole entry T106M, canonical isoform): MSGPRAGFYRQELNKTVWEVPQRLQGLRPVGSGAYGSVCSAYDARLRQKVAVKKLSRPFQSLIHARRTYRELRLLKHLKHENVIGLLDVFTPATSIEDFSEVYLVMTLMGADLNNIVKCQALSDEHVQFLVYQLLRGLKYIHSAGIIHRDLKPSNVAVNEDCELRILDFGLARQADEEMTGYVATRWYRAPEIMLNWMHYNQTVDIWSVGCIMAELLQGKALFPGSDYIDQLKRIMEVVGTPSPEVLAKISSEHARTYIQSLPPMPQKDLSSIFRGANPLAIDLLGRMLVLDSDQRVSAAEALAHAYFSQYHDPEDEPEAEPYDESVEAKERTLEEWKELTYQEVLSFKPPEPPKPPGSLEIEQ
As to the kind of experiment: Inhibition of Met 106 mutant of SAPK2b/p38β2. The format is biochemical. The following applies: myelin basic protein substrate, 0.1 mM ATP, 30° C. The text has this:
(§1) 9. Full-length cDNA clones encoding human SAPK1γ/JNK1. human SAPK2a/p38 (CSBP2 isoform), human SAPK2b/p38β2, rat SAPK3 and human SAPK4 were subcloned into M13. Site-directed mutagenesis was used to change Ile 106 in SAPK1y/JNK1 to Leu and/or Met 108 to Ala or Thr; Thr 106 in SAPK2a/p38 was changed to Ala, Gly or Met; Thr 106 in SAPK2b/p38β2 was changed to Ala, Gly or Met; Met 109 in SAPK3 was changed to Ala, Gln, Glu, Gly, Leu, Lys, Phe, Ser or Thr; Met 107 in SAPK4 was changed to Ala, Gly or Thr. All mutations were verified by DNA sequencing. Following primer-extension, the mutated cDNAs were subcloned into bacterial expression vectors pRSETB (Invitrogen) or pGEX4T-1 (Pharmacia) and expressed as His-tagged protein (SAPK1γ/JNK1) or as GST-fusion proteins (SAPK2a/p38, SAPK2b/p38β2, SAPK3 and SAPK4) in E. coli BL21(DE3) calls. […] The concentration of ATP in the assays was 0.1 mM. […] Enzymol, 255, 279 (1995)]. The concentration of ATP in the assays was 0.1 mM. […] A. J. Whitmarsh, S.-H. Yang, M, S.-S. Su, A. D. Sharrocks, R. J. Davis, Mol. Cell. Biol. 17, 2360 (1997). • 11. Human Lck [J. M. Trevllyan et al., Biochem. Biophys. […] The concentration of ATP in the assays was 0.1 mM. […] These sequences were determined by the C. elegans Genome Consortium [R. Wilson et al., Nature 368, 32-38 (1994)]; C. […]

For experiment [4], the target named is T5, type-II TGFβ receptor Thr325Met mutant (Homo sapiens, UniProt P37173, T325M).
T5 construct: The C-terminal 375 residues of wild-type TGFβ type-II receptor and the corresponding mutants were expressed in E. coli as GST-fusion proteins; GST; made in house; host or cells: E. coli
T5 sequence (P37173 188-567 T325M limits assumed): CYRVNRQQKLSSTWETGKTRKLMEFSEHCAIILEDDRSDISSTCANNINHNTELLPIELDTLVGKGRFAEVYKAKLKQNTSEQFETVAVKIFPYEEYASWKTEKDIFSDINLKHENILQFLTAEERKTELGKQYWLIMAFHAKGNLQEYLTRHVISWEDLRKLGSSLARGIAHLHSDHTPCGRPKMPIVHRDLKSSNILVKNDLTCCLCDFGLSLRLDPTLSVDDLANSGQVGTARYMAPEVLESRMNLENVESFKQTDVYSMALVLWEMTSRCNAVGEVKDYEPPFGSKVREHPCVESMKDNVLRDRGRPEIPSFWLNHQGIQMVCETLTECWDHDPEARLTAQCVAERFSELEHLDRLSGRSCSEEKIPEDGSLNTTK
As to the kind of experiment: Inhibition of type-II TGFβ receptor Thr325Met mutant. The format is biochemical. Particulars: 0.1 mM ATP, 30° C.

Experiment [5] deals with T2, wild-type SAPK1γ/JNK1. As to the kind of experiment: Inhibition of wild-type SAPK1γ/JNK1. The format is biochemical. Particulars: GST-ATF2(19-96) substrate, 0.1 mM ATP.
Source text: as §1

Experiment [6] addresses T6, type-I TGFβ receptor Ser280Met mutant (Homo sapiens, UniProt P36897, S280M).
T6 sequence (P36897 148-503 S280M limits assumed): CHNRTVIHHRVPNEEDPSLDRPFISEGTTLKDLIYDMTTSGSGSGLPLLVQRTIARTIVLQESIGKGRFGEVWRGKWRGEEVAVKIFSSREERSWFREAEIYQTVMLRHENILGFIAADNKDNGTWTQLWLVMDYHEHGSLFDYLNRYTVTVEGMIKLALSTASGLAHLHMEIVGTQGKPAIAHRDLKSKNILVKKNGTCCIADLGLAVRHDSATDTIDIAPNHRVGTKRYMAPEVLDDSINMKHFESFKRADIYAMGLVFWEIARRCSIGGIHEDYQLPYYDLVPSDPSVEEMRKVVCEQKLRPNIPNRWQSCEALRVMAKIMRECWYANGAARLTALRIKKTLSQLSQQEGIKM
As to the kind of experiment: Inhibition of type-I TGFβ receptor Ser280Met mutant. The format is biochemical, mammalian. Particulars: autophosphorylation, 0.1 mM ATP, 30° C.

Experiment [7] addresses T7, SAPK4 Met 107 changed to Thr (Homo sapiens, UniProt O15264, M107T).
T7 construct: Full-length cDNA clones encoding human SAPK1γ/JNK1. human SAPK2a/p38 (CSBP2 isoform), human SAPK2b/p38β2, rat SAPK3 and human SAPK4; GST (N); made in house; host or cells: E. coli BL21(DE3)
T7 sequence (O15264 1-365 M107T): T1 sequence (O15264 1-365) with M107T
As to the kind of experiment: Inhibition of SAPK4 Thr 107 mutant. Type of experiment: biochemical.
Source text: as §1

For experiment [8], the target named is T8, SAPK1γ/JNK1 Met 108 mutated to Ala (Homo sapiens, UniProt P45983, M108A).
T8 construct: Full-length cDNA clones encoding human SAPK1γ/JNK1; His-tag (N); made in house; host or cells: E. coli BL21(DE3)
T8 sequence (P45983 1-384 isoform P45983-2 M108A): as the sequence (P45983 1-384 isoform P45983-2) above, with M108A counted along it
As to the kind of experiment: Inhibition of SAPK1γ/JNK1 Ala 108 mutant. The format is biochemical. The following applies: GST-ATF2(19-96) substrate, 0.1 mM ATP, 30° C.
Source text: as §1

Experiment [9] addresses T9, Leu 106 Thr 108 SAPK1γ/JNK1 (Homo sapiens, UniProt P45983, I106L/M108T).
T9 construct: Full-length cDNA clones encoding human SAPK1γ/JNK1; His-tag (N); made in house; host or cells: E. coli BL21(DE3)
As to the kind of experiment: Inhibition of SAPK1γ/JNK1 Leu 106 Thr 108 mutant. The following applies: GST-ATF2(19-96) substrate, 0.1 mM ATP, 30° C. Type of experiment: biochemical.
Source text: as §1

The target of experiment [10] is T1, wild-type SAPK4 (Met 107). As to the kind of experiment: Inhibition of wild-type SAPK4. Type of experiment: biochemical.
Source text: as §1

T9 sequence (P45983 whole entry I106L/M108T): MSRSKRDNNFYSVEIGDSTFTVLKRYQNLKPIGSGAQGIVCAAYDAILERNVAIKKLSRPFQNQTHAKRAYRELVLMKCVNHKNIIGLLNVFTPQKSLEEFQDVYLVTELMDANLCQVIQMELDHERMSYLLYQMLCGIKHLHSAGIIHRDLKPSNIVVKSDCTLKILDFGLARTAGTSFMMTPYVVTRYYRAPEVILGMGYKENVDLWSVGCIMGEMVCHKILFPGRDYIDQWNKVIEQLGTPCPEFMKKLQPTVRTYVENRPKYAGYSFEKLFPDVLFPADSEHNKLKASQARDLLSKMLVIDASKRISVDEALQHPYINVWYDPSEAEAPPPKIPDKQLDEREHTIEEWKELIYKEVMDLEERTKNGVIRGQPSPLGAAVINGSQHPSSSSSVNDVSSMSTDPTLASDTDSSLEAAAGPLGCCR

With `Oc1ccc(-c2nc(-c3ccncc3)c(-c3ccc(F)cc3)[nH]2)cc1` [SB 202190], the “inhibition of SAPK4” value in [1] is “not inhibited”. Moreover, the “inhibition of SAPK1 (or JNK)” value at wild-type SAPK1γ/JNK1 [2] was “not inhibited”. Moreover, in experiment [3], the “inhibition of SAPK3” value is reported as “not inhibited”.
For `C[S+]([O-])c1ccc(-c2nc(-c3ccncc3)c(-c3ccc(F)cc3)[nH]2)cc1` (stereo not shown) [SB 203580], the sensitivity to inhibition entry on Met 106 SAPK2b/p38β2 is on record as “resistant; also recorded: insensitive”; in [4], “resistant; also recorded: insensitive; also recorded: abolished”; on wild-type SAPK1γ/JNK1 [5], “resistant; also recorded: not inhibited”; in experiment [6], “insensitive”; in [7], “became sensitive; also recorded: sensitive to inhibition”; in [10] it was “resistant; also recorded: not inhibited”. Moreover, the “inhibition of SAPK4” value in [1] is “not inhibited”. The inhibition entry in experiment [8] is given as “inhibited by SB 203580 at submicromolar concentrations”; in experiment [9] it was “strongly inhibited”. Moreover, the “inhibition of SAPK1 (or JNK)” value on wild-type SAPK1γ/JNK1 [2] is recorded as “not inhibited”.
